Assay results taken from patent US9487483B2, “Complement pathway modulators and uses thereof” (priority 2012, dated 2016).

Biological target: Recombinant human factor D (Homo sapiens (Human), UniProt P00746)
Test: biochemical
Assay type: biochemical
Settings: Factor D inhibition data using Method 1; substrate Z-Lys-thiobenzyl, fluorescence readout; read-out: IC50
Method: Human Complement Factor D Assay: Method 1
Recombinant human factor D (expressed in E. coli and purified using standard methods) at 10 nM concentration is incubated with test compound at various concentrations for 1 hour at room temperature in 0.1 M Hepes buffer, pH 7.5, containing 1 mM MgCl2, 1 M NaCl and 0.05% CHAPS. […] IC50 values are calculated from percentage of inhibition of complement factor D-activity as a function of test compound concentration.

Chain of Recombinant human factor D (P00746 26-253): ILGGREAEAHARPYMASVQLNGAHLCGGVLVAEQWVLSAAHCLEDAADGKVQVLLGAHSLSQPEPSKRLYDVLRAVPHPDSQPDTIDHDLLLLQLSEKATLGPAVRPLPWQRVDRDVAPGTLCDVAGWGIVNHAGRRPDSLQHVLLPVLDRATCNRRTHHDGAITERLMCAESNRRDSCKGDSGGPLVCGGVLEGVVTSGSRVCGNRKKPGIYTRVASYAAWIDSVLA

| Structure (SMILES) | IC50 |
| --- | --- |
| C[C@]1(CO)CCC[C@@H](NC(=O)[C@@H]2C[C@H]3C[C@H]3N2C(=O)Cn2nc(C(N)=O)c3ccccc32)C1 [Example 127, 1-(2-((1R,3S,5R)-3-(((1R,3S)-3-(hydroxymethyl)-3-methylcyclohexyl)carbamoyl)-2-azabicyclo[3.1.0]hexan-2-yl)-2-oxoethyl)-1H-indazole-3-carboxamide] | 0.08 µM |
| C[C@@]1(CO)CCC[C@H](NC(=O)[C@@H]2C[C@H]3C[C@H]3N2C(=O)Cn2nc(C(N)=O)c3ccccc32)C1 [Example 128, 1-(2-((1R,3S,5R)-3-(((1S,3R)-3-(hydroxymethyl)-3-methylcyclohexyl)carbamoyl)-2-azabicyclo[3.1.0]hexan-2-yl)-2-oxoethyl)-1H-indazole-3-carboxamide] | 2.21 µM |
